Data: publication PMC12692955, “Acetylbinankadsurin A Decreases Macrophage Glycolysis and Pro-Inflammatory Phenotype Polarization via Inhibiting HIF-1α to Alleviate Hepatic Fibrosis in Mice” (Molecules, 2025)

Target: T1, HIF-1α (Homo sapiens, UniProt Q16665)
T1 construct: gene HIF1A; recombinant protein HIF-1α (MCE #HY-P74888)
Assay: SPR (Biacore T200, HIF-1α amine-coupled to CM5 chip)
Type: binding

T1 sequence (Q16665 whole entry): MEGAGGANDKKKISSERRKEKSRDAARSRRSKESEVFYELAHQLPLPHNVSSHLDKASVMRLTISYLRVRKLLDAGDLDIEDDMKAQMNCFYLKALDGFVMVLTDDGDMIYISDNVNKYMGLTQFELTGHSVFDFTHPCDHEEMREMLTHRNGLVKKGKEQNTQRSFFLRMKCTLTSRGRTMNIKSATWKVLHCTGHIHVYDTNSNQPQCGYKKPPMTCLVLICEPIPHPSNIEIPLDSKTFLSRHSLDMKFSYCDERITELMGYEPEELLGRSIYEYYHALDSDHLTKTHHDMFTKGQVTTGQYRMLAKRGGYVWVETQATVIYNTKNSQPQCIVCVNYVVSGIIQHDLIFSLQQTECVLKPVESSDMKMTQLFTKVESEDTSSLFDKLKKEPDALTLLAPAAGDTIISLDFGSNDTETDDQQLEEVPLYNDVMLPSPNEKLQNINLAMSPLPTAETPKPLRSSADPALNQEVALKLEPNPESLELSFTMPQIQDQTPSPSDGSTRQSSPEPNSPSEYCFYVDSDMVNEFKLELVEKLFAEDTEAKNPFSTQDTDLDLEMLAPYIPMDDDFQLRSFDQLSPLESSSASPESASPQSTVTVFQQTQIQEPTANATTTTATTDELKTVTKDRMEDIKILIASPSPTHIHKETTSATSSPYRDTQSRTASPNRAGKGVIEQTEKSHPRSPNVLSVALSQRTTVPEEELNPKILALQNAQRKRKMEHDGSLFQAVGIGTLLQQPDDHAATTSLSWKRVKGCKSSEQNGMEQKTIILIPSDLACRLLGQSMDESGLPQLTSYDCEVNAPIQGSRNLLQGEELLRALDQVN

## COc1cc2c(c(O)c1OC)-c1c(cc3c(c1OC)OCO3)[C@H](OC(C)=O)[C@H](C)[C@H](C)C2 [ACBA, Acetylbinankadsurin A]
  Kd: 13 µM
